{
  "source": "patent US20230372264A1",
  "about": "(priority 2020, published 2023)",
  "origin": "cited, not measured here",
  "key": {"Candida sp.": {"system": "Candida sp.", "settings": "reference [27]"}, "Staphylococcus aureus": {"system": "Staphylococcus aureus", "settings": "reference [27]"}, "Streptococcus spp.": {"system": "Streptococcus spp.", "settings": "reference [27]"}, "[1]": {"system": "human breast cancer cells", "settings": "reference [16]"}, "SARS-CoV": {"system": "SARS-CoV", "settings": "reference [9]"}, "[2]": {"system": "ACE2 receptor bonds with viral S-glycoproteins", "settings": "in vitro cellular models, cholesterol depletion, reference [5]"}},
  "data": [
    {"compound": "OCCc1ccc(O)c(O)c1", "note": "[hydroxytyrosol, 4-(2-hydroxyethyl)-1,2-dihydroxybenzene]", "values": [
      {"measurement": "growth reduction", "setting": "Candida sp.", "value": 40, "unit": "%"},
      {"measurement": "growth reduction", "setting": "Staphylococcus aureus", "value": 40, "unit": "%"},
      {"measurement": "growth reduction", "setting": "Streptococcus spp.", "value": 40, "unit": "%"}
    ]},
    {"compound": "hydroxypropyl-α-cyclodextrin", "values": [
      {"measurement": "effectiveness against migration vs hydroxypropyl-β-cyclodextrin", "setting": "[1]", "value": "twice as effective"}
    ]},
    {"compound": "methyl-β-cyclodextrin [MβCD]", "values": [
      {"measurement": "inhibition of SARS-CoV infectivity", "setting": "SARS-CoV", "value": 90, "unit": "%"},
      {"measurement": "number of ACE2 receptor bonds with viral S-glycoproteins", "setting": "[2]", "value": "halves"}
    ]}
  ]
}
